Drawing on ChEMBL document CHEMBL5291721, “A preclinical secondary pharmacology resource illuminates target-adverse drug reaction associations of marketed drugs” (Nat Commun, 2023), this text covers AC50 for 13 compounds.

The target in experiment [1] is Sodium-dependent noradrenaline transporter (Homo sapiens, UniProt P23975).
In experiment [2] the target is Voltage-dependent L-type calcium channel subunit alpha-1C (Rattus norvegicus, UniProt P22002). In kind it is functional.
For a further experiment, the target named is Adenosine receptor A2a (Homo sapiens, UniProt P29274).
Chain of Adenosine receptor A2a (P29274 whole entry): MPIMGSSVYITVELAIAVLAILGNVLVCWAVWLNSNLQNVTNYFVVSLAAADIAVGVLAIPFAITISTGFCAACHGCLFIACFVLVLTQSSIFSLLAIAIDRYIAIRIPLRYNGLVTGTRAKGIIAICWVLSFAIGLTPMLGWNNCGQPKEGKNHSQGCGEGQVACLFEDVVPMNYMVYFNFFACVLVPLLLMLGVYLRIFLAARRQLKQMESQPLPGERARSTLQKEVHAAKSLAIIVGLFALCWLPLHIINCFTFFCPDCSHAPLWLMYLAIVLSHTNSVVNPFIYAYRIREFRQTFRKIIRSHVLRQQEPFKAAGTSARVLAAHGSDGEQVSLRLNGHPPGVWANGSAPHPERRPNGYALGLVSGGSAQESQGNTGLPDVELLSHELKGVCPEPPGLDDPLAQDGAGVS
In experiment [3] the target is T1, Cholecystokinin receptor type A (Homo sapiens, UniProt P32238).
T1 sequence (P32238 whole entry): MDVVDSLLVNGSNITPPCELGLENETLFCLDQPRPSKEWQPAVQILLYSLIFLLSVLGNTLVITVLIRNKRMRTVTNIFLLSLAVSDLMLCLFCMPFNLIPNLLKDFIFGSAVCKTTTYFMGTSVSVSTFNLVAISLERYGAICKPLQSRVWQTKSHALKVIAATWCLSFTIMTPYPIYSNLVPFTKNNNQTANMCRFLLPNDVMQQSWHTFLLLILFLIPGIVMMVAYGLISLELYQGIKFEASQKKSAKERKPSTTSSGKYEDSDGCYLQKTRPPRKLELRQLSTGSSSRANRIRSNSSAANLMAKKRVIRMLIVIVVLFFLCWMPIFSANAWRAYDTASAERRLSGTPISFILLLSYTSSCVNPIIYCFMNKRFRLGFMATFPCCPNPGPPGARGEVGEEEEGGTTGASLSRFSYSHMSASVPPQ

Experiment [4] has as its target Glutamate receptor ionotropic, NMDA 1 (Rattus norvegicus, UniProt P35439).
The target in experiment [5] is Gamma-aminobutyric acid receptor subunit alpha-1 (Rattus norvegicus, UniProt P62813). It is filed as functional.
Chain of Gamma-aminobutyric acid receptor subunit alpha-1 (P62813 whole entry): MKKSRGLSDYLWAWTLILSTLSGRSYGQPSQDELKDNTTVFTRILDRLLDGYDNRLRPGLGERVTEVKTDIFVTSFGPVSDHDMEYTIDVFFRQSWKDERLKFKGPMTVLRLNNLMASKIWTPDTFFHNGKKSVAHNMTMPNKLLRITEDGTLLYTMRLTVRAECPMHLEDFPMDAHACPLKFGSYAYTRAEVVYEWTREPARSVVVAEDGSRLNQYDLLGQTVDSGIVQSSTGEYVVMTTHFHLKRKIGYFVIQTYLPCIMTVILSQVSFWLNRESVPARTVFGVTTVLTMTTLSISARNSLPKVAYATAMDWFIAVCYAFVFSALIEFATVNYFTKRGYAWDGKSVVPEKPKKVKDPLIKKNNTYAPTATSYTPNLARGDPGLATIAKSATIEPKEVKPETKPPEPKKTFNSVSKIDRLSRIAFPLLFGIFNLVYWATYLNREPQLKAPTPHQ
Experiment [6] concerns the target T2, Type-1 angiotensin II receptor (Homo sapiens, UniProt P30556).
T2 sequence (P30556 whole entry): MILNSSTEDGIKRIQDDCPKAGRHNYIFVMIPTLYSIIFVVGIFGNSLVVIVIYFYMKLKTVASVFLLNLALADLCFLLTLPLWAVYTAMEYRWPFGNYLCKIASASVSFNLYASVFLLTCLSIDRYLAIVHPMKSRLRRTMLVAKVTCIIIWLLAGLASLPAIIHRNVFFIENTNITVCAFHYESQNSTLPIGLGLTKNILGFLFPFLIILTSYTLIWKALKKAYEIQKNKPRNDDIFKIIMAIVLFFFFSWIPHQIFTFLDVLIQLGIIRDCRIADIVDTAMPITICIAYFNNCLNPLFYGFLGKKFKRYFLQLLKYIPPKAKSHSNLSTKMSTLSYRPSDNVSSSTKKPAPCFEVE

Experiment [7] has as its target T3, Prostaglandin G/H synthase 1 (Rattus norvegicus, UniProt Q63921).
T3 sequence (Q63921 whole entry): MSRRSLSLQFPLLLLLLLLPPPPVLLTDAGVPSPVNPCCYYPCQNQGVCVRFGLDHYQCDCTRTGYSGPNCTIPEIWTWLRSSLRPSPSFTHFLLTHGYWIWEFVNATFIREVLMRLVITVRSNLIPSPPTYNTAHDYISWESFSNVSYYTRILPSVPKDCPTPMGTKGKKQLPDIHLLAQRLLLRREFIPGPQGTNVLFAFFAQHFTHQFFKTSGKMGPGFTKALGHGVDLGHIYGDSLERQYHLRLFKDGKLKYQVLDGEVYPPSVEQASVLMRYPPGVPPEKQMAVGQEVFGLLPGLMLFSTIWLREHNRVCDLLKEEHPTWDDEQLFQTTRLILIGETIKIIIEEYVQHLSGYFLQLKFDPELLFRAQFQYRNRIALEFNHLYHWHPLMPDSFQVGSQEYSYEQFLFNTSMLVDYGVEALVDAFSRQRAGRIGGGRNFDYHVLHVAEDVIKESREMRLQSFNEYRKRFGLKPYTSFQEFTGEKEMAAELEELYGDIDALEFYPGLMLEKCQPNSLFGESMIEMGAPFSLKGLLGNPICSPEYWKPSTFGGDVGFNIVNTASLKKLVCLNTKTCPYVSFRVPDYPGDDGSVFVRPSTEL
It is filed as functional.

Experiment [8] concerns the target Neuronal acetylcholine receptor subunit alpha-4 (Homo sapiens, UniProt P43681).
For a further experiment, the target named is D(1A) dopamine receptor (Homo sapiens, UniProt P21728). In kind it is functional, cell-based.
Chain of D(1A) dopamine receptor (P21728 whole entry): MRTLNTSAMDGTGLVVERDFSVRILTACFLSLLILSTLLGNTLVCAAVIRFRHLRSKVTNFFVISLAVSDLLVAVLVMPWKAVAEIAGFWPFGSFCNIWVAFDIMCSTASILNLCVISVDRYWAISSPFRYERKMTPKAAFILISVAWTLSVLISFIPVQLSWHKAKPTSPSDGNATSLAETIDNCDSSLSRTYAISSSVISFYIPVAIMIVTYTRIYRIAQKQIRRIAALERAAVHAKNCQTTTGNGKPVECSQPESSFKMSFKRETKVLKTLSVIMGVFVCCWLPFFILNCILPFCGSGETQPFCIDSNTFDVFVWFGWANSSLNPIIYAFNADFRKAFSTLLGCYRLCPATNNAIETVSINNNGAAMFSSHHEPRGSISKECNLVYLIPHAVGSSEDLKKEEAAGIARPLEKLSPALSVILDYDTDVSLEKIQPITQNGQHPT
In experiment [9] the target is T4, Cannabinoid receptor 1 (Homo sapiens, UniProt P21554). In kind it is functional, cell-based.
T4 sequence (P21554 whole entry): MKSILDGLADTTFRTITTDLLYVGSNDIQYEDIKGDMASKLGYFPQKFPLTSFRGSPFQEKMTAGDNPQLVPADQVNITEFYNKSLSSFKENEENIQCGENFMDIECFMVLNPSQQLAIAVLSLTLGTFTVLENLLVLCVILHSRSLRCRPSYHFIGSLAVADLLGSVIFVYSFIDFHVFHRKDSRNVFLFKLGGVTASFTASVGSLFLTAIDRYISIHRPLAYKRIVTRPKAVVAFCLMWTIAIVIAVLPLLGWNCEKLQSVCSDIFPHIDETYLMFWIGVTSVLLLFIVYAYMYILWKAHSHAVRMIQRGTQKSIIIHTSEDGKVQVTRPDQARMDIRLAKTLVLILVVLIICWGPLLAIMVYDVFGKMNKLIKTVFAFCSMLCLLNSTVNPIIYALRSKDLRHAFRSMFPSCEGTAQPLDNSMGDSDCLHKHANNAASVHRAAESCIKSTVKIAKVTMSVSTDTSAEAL
Experiment [10] deals with T4, Cannabinoid receptor 1. It is filed as functional, cell-based. The source holds these as a separate data set.
Another experiment addresses Histamine H2 receptor (Homo sapiens, UniProt P25021). It is filed as functional, cell-based.

The structures appear in SMILES notation.
Further: assay procedure not described here.

Chain of Histamine H2 receptor (P25021 whole entry): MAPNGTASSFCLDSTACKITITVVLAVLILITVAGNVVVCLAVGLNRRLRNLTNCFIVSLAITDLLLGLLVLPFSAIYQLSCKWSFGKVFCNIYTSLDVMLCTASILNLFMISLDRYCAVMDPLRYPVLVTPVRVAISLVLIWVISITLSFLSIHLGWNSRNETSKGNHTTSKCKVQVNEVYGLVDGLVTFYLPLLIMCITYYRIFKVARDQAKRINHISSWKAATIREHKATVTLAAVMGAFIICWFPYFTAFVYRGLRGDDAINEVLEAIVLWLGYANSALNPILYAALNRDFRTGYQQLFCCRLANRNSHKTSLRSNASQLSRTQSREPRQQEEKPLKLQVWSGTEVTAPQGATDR
Chain of Neuronal acetylcholine receptor subunit alpha-4 (P43681 whole entry): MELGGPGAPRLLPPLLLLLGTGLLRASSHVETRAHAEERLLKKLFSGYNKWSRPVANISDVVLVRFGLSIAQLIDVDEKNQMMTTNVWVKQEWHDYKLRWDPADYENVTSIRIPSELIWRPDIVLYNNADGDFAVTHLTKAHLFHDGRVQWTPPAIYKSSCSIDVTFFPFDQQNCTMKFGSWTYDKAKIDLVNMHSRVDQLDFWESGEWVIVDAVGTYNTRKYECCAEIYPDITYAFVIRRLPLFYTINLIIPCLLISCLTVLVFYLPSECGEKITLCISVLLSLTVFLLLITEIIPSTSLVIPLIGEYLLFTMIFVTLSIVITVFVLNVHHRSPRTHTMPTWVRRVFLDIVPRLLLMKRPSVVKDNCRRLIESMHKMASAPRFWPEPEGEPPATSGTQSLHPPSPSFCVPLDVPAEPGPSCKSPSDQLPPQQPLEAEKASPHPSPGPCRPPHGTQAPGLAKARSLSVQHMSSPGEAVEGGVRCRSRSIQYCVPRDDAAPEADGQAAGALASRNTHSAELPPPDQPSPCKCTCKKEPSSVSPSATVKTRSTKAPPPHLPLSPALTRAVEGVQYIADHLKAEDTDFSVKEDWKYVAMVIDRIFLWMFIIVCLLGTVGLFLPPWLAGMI
Chain of Sodium-dependent noradrenaline transporter (P23975 whole entry): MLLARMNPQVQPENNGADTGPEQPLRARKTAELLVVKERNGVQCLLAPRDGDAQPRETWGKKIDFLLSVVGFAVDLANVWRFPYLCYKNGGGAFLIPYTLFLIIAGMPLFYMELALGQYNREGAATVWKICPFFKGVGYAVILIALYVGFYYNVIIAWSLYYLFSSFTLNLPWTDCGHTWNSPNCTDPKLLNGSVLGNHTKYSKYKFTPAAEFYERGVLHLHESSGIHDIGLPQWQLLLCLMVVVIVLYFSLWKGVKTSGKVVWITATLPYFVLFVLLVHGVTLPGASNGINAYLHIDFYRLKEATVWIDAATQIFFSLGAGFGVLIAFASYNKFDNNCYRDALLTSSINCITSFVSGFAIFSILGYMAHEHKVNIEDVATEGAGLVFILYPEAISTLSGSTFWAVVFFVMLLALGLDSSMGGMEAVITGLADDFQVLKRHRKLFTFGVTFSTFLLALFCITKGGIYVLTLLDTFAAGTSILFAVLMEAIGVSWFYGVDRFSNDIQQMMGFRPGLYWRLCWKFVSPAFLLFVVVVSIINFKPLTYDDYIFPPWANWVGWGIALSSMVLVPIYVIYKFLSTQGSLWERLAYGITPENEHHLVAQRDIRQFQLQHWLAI

Turning to `O=C(O)CCCc1ccccc1` [PHENYLBUTANOIC ACID], the AC50 in experiment [1] was greater than 10 µM; in [2], greater than 30 µM; at Adenosine receptor A2a, greater than 10 µM; in experiment [3], greater than 10 µM; in experiment [4], greater than 30 µM; in experiment [5], greater than 30 µM. For the same compound, the concentration at half-maximal activity (AC50) was greater than 10 µM in experiment [6], greater than 30 µM in experiment [7] and greater than 10 µM in experiment [8].

As for `NC(=O)C[S+]([O-])C(c1ccccc1)c1ccccc1` (stereo not given) [MODAFINIL], the AC50 on D(1A) dopamine receptor is greater than 10 µM; in experiment [1], greater than 10 µM; at Cannabinoid receptor 1 [9], greater than 30 µM; in experiment [2] it was greater than 10 µM; at Adenosine receptor A2a, greater than 30 µM; at Cannabinoid receptor 1 [10], greater than 30 µM. The AC50 on Histamine H2 receptor is greater than 10 µM; in experiment [3] it was greater than 30 µM; in experiment [4] it was greater than 10 µM; in experiment [5], greater than 10 µM; in experiment [6], greater than 30 µM; in [7], greater than 30 µM. This compound registered an AC50 in experiment [8] greater than 10 µM.

Take `CCOc1cc(N)c([N+](=O)[O-])cc1C(=O)NC1CCN(CC2CC=CCC2)CC1` (stereo not given) [CINITAPRIDE]: the AC50 on D(1A) dopamine receptor was greater than 30 µM; in experiment [1], 24 µM; on Cannabinoid receptor 1 [9], greater than 30 µM; in experiment [2], greater than 30 µM; on Adenosine receptor A2a, greater than 30 µM; at Cannabinoid receptor 1 [10] it was greater than 30 µM. Also, the AC50 was greater than 30 µM on Histamine H2 receptor; greater than 30 µM in experiment [3]; greater than 30 µM in experiment [4]; 14 µM in [5]; greater than 30 µM in experiment [6]; greater than 30 µM in experiment [7]. This compound also gave a concentration at half-maximal activity (AC50) in [8] of 15 µM.

As to `C#C[C@]1(O)CC[C@H]2[C@@H]3CCC4=CCCC[C@@H]4[C@H]3CC[C@@]21C` [LYNESTRENOL], the AC50 (on D(1A) dopamine receptor; in experiment [1]; at Cannabinoid receptor 1 [9]; in experiment [2]; on Adenosine receptor A2a; at Cannabinoid receptor 1 [10]) was greater than 30 µM in each case. In addition, the concentration at half-maximal activity (AC50) (at Histamine H2 receptor; in experiment [3]; in experiment [4]; in [5]; in experiment [6]; in experiment [7]) was greater than 30 µM throughout. Besides, in [8], the AC50 was greater than 30 µM.

As for `COc1ccc(C(=O)N2CCN(c3ccc4c(c3)CCC(=O)N4)CC2)cc1OC` [VESNARINONE], the AC50 (at D(1A) dopamine receptor; in experiment [1]; at Cannabinoid receptor 1 [9]; at Adenosine receptor A2a; at Cannabinoid receptor 1 [10]; on Histamine H2 receptor) was greater than 30 µM throughout. Also, the AC50 in experiment [3], in experiment [4], in experiment [5], in experiment [6], in experiment [7] and in [8] was greater than 30 µM in each case.

On to `Cc1c(C(=O)Nc2ccc(N3C[C@@H](C)O[C@@H](C)C3)nc2)cccc1-c1ccc(OC(F)(F)F)cc1` [SONIDEGIB], for which the concentration at half-maximal activity (AC50) is greater than 10 µM in experiment [1]; greater than 10 µM in [2]; greater than 30 µM on Adenosine receptor A2a; greater than 30 µM in experiment [3]; greater than 10 µM in experiment [4]; greater than 10 µM in experiment [5]. Further, the half-maximal activity concentration (AC50) was greater than 30 µM in [6], greater than 30 µM in [7] and greater than 10 µM in experiment [8].

Regarding `CN1CC(=O)N2[C@H](c3ccc4c(c3)OCO4)c3[nH]c4ccccc4c3C[C@@H]2C1=O`, the AC50 on D(1A) dopamine receptor was greater than 10 µM; in experiment [1], greater than 30 µM; at Cannabinoid receptor 1 [9], greater than 30 µM; in [2], greater than 10 µM; on Adenosine receptor A2a it was greater than 30 µM; on Cannabinoid receptor 1 [10], greater than 30 µM. The AC50 is greater than 10 µM on Histamine H2 receptor; greater than 30 µM in experiment [3]; greater than 10 µM in experiment [4]; greater than 10 µM in experiment [5]; greater than 30 µM in experiment [6]; greater than 30 µM in [7]. In experiment [8], this compound registered an AC50 greater than 10 µM.

As for `CC/C=C\C/C=C\C/C=C\CCCCCCCC(=O)O` [LINOLENIC ACID], the AC50 (at D(1A) dopamine receptor; in [1]; at Cannabinoid receptor 1 [9]; on Adenosine receptor A2a; on Cannabinoid receptor 1 [10]; at Histamine H2 receptor) was greater than 30 µM throughout. Also, the half-maximal activity concentration (AC50) was greater than 30 µM in experiment [3]; greater than 30 µM in [4]; greater than 30 µM in [5]; greater than 30 µM in [6]; 6.3 µM in experiment [7]; greater than 30 µM in [8].

As for `CC(=O)OCC(=O)[C@@]12OC3(CCCC3)O[C@@H]1C[C@H]1[C@@H]3CCC4=CC(=O)C=C[C@]4(C)[C@@]3(F)[C@@H](O)C[C@@]12C` [AMCINONIDE], the AC50 (on D(1A) dopamine receptor; in [1]; in experiment [2]; on Adenosine receptor A2a; on Histamine H2 receptor; in experiment [3]) was greater than 10 µM each time. For the same compound, the AC50 in [4], in experiment [5], in experiment [6], in experiment [7] and in [8] was greater than 10 µM throughout.

For `CN1CCc2cccc3c2[C@H]1Cc1ccc(O)c(O)c1-3` [APOMORPHINE], the AC50 in [1] was greater than 30 µM; on Cannabinoid receptor 1 [9], greater than 30 µM; in experiment [2], greater than 10 µM; at Adenosine receptor A2a, greater than 30 µM; at Cannabinoid receptor 1 [10], greater than 30 µM; at Histamine H2 receptor it was greater than 10 µM. Also, the AC50 in [3] was greater than 30 µM; in experiment [4], greater than 10 µM; in experiment [5], greater than 10 µM; in experiment [6], greater than 30 µM; in experiment [7], 20.4 µM; in experiment [8], greater than 10 µM.

In the case of `CCNC(C)Cc1cccc(C(F)(F)F)c1` (stereo not given) [FENFLURAMINE], the AC50 was greater than 30 µM at Cannabinoid receptor 1 [9]; greater than 10 µM in experiment [2]; greater than 30 µM on Adenosine receptor A2a; greater than 30 µM at Cannabinoid receptor 1 [10]; greater than 30 µM in [3]; greater than 10 µM in experiment [4]. Besides, the AC50 in experiment [5] was greater than 10 µM; in experiment [6], greater than 30 µM; in experiment [7], greater than 30 µM; in [8] it was greater than 10 µM.

With `CC(C)c1c(C(=O)Nc2ccccc2)c(-c2ccccc2)c(-c2ccc(F)cc2)n1CC[C@@H](O)C[C@@H](O)CC(=O)O` [ATORVASTATIN], the AC50 in [1] was greater than 30 µM; at Cannabinoid receptor 1 [9], greater than 30 µM; in experiment [2], greater than 10 µM; on Adenosine receptor A2a, greater than 30 µM; on Cannabinoid receptor 1 [10], greater than 30 µM; on Histamine H2 receptor it was greater than 10 µM. The AC50 in experiment [3] is greater than 30 µM; in experiment [4], greater than 10 µM; in [5], greater than 10 µM; in experiment [6], greater than 30 µM; in experiment [7], greater than 30 µM; in experiment [8], greater than 10 µM.

`CC(Cc1ccccc1)NCCC(c1ccccc1)c1ccccc1` (stereo not given) [PRENYLAMINE]: the AC50 on D(1A) dopamine receptor is greater than 30 µM; in experiment [1], 2.3 µM; in experiment [2], 4.28 µM; on Adenosine receptor A2a it was greater than 30 µM; at Histamine H2 receptor, greater than 30 µM; in [3], greater than 30 µM. Further, the half-maximal activity concentration (AC50) was greater than 10 µM in [4]; greater than 10 µM in experiment [5]; greater than 30 µM in experiment [6]; greater than 30 µM in [7]; greater than 10 µM in experiment [8].

For orientation: AC50 means the concentration giving half of the maximal activity seen.
